In the SangsterLogP compilation one finds logP and logD data, which are given here for 33 molecules.

A short description of data set [1]: method code SF-AS, from Krisztina, T.; Perjesi, P.; Vámos, J. (2001). Determination of logP for biologically active chalcones and cyclic chalcone analogs by RPTLC. Journal of Planar Chromatography - Modern TLC. 14, 42-46. To be noted: pH 7.4.

In general, logP refers to the decadic logarithm of the partition coefficient of the neutral form, usually between octanol and water. A lower logP goes with lower lipophilicity. `Cc1ccccc1C=C1CCCc2ccccc2C1=O`: the logP was 4.92.
`COc1ccccc1C=C1CCCc2ccccc2C1=O` displayed a logP of 4.69.
The same measure, in the same setting: under `O=C1C(=Cc2ccccc2Cl)CCCc2ccccc21` stands 5.04.
As for `Cc1ccc(C=C2CCCc3ccccc3C2=O)cc1`, the logP turned out to be 5.1.
Turning to `COc1ccc(C=C2Cc3ccccc3C2=O)cc1`, the logP was 3.91.
Molecule `CN(C)c1ccc(C=C2CCc3ccccc3C2=O)cc1` yielded a logP of 4.91.
Molecule `COc1cccc(C=CC(=O)c2ccccc2)c1` displayed a logP of 3.8.
`COc1ccccc1C=C1Cc2ccccc2C1=O` came in with a logP of 4.01.
Consider `CN(C)c1ccc(C=C2Cc3ccccc3C2=O)cc1`, for which the logP was 4.5.
In turn, `COc1ccc(/C=C/C(=O)c2ccccc2)cc1` registered a logP of 3.67.
Same read-out and setting: under `O=C1C(=Cc2cccc(F)c2)CCCc2ccccc21` stands 4.6.
Still for that read-out and setting: the figure for `COc1cccc(/C=C2\CCc3ccccc3C2=O)c1` is 4.42; for `O=C1C(=Cc2ccc(F)cc2)CCCc2ccccc21` it is 4.45.
Consider `COc1ccc(C=C2CCCc3ccccc3C2=O)cc1`, for which the lipophilicity (logP) came to 4.72.
The molecule `O=C1C(=Cc2ccc(Cl)cc2)CCCc2ccccc21` displayed a logP of 5.1.
The same measure, in the same setting: under `COc1ccccc1C=CC(=O)c1ccccc1` stands 3.99.
As to `O=C1C(=Cc2ccccc2)CCCc2ccccc21`, the logP came to 4.48.
With `O=C1C(=Cc2ccccc2Br)CCCc2ccccc21`, the logP came out at 5.04.
Turning to `O=C1C(=Cc2ccc(Br)cc2)CCCc2ccccc21`, the logP is 5.22.
For `COc1cccc(C=C2Cc3ccccc3C2=O)c1`, the logP was determined as 3.97.
`COc1ccc(C=C2CCc3ccccc3C2=O)cc1` displayed a logP of 4.32.
Molecule `O=C1/C(=C\c2ccccc2)CCc2ccccc21` came in with a log partition coefficient (logP) of 4.14.
Consider `N#Cc1ccc(/C=C/C(=O)c2ccccc2)cc1`, for which the logP turned out to be 2.93.
`O=C1C(=Cc2ccc([N+](=O)[O-])cc2)CCCc2ccccc21` had a logP of 4.15.
In general, logD refers to the decadic logarithm of the distribution of all forms, ionised or not, between an organic phase and buffer at a given pH. A high value points to higher lipophilicity. `O=C(C=Cc1ccccc1)c1ccccc1`: the logD in data set [1] worked out at 3.62.
Take `CN(C)c1ccc(C=C2CCCc3ccccc3C2=O)cc1`: the logP stood at 5.26.
`O=C1C(=Cc2cccc(Br)c2)CCCc2ccccc21`: the logP is 5.35.
As to `O=C1/C(=C/c2ccccc2[N+](=O)[O-])CCCc2ccccc21`, the logP is 4.07.
Consider `CN(C)c1ccc(/C=C/C(=O)c2ccccc2)cc1`, for which the logP was determined as 4.23.
`O=C1C(=Cc2cccc([N+](=O)[O-])c2)CCCc2ccccc21` came in with a logP of 4.32.
In data set [1], `O=C1C(=Cc2ccccc2)Cc2ccccc21` returned a logD of 3.66.
`Cc1cccc(C=C2CCCc3ccccc3C2=O)c1` showed a logP of 4.98.
On the same count and under the same terms, the figure for `COc1ccccc1C=C1CCc2ccccc2C1=O` is 4.43.
